Experimental findings from US9181269B2, “Enantiomers of fluconazole analogues containing thieno-[2,-3-D]pyrimidin-4(3H)-one moiety as antifungal agents” (FDC Limited, priority 2011, dated 2015) are described below.

As usually defined, the MIC50 is the lowest concentration that inhibits either 50% of growth or 50% of the strains tested, depending on the study.

One test concerns C. albicans ATCC 2091. Description: MIC by broth dilution, CA03. The format is cell-based, Candida albicans. To be noted: RPMI 1640 pH 7.0, 48 hours; for MIC50: Candida albicans, ATCC2091, concentration exhibiting more than 50% inhibition vs positive control, read-out: MIC50 obtained by broth dilution method, MIC. Here is the method: (§1) The compounds of Formula (1a) and (1b) were tested for antifungal activity against various strains of Candida(CA 01: Candida albicans ATCC 24433, CA 02: C. albicans ATCC 10231, CA 03: C. albicans ATCC 2091, CA 04: C. albicans ATCC 90028, CG 01: C. glabrata ATCC 90030, CK 01: C. Krusei ATCC 6258, CT 01: C. tropicalis ATCC 750). In vitro evaluation of antifungal activity was performed by determining the minimum inhibitory concentration (MIC) following standard broth dilution methods (CLSI: Reference method for broth dilution antifungal susceptibility testing of yeasts; Approved standard, second edition M27-A2, 2002; CLSI: Reference method for broth dilution antifungal susceptibility testing of filamentous fungi; […]. Known anti-fungal agents like Fluconazole and Amphotericin-B were used as standards. End points were determined after 48 hours visually and by using spectrophotometer wherever necessary. The activity parameters are enumerated in Table 10: […]
A general note: Broth dilution looks for growth in wells or tubes with falling amounts of substance.

In another test the test system is C. albicans ATCC 10231. Description: MIC by broth dilution, CA02. Type of test: cell-based, Candida albicans. The note with it: RPMI 1640 pH 7.0, 48 hours; for MIC50: Candida albicans, ATCC10231, concentration exhibiting more than 50% inhibition vs positive control, read-out: MIC50 obtained by broth dilution method, MIC. Here is the method:
as §1

The test system of the next test is C. Krusei ATCC 6258. Nature of the test: MIC by broth dilution, CK01. To be noted: RPMI 1640 pH 7.0, 48 hours; for MIC50: Pichia kudriavzevii, ATCC6258, concentration exhibiting more than 50% inhibition vs positive control, read-out: MIC50 obtained by broth dilution method, MIC. Type of test: cell-based. Here is the method:
as §1

A further test deals with C. albicans ATCC 90028. Nature of the test: MIC by broth dilution, CA04. The note with it: RPMI 1640 pH 7.0, 48 hours; for MIC50: Candida albicans, ATCC90028, concentration exhibiting more than 50% inhibition vs positive control, read-out: MIC50 obtained by broth dilution method, MIC. Type of test: cell-based, Candida albicans. Here is the method:
as §1

For the next test, the system named is C. tropicalis ATCC 750. Nature of the test: MIC by broth dilution, CT01. Type of test: cell-based. To be noted: RPMI 1640 pH 7.0, 48 hours; for MIC50: Candida tropicalis, ATCC750, concentration exhibiting more than 50% inhibition vs positive control, read-out: MIC50 obtained by broth dilution method, MIC. As to the method: as §1
The subject of another test is C. glabrata ATCC 90030. Nature of the test: MIC by broth dilution, CG01. The format is cell-based. The note with it: RPMI 1640 pH 7.0, 48 hours; for MIC50: Nakaseomyces glabratus, ATCC90030, concentration exhibiting more than 50% inhibition vs positive control, read-out: MIC50 obtained by broth dilution method, MIC. As to the method: as §1
The subject of test [1] is Candida albicans ATCC 24433. Nature of the test: MIC by broth dilution, CA01. To be noted: RPMI 1640 pH 7.0, 48 hours; for MIC50: Candida albicans, ATCC24433, concentration exhibiting more than 50% inhibition vs positive control, read-out: MIC50 obtained by broth dilution method, MIC. Type of test: cell-based. Here is the method: as §1
The mark [2] stands for this setting: concentration exhibiting complete inhibition.

Values after ≈ are worked out from the molar mass of the structure shown.

Consider `C[C@@H]1[C@H](O)[C@@H](C)/C=C/C=C/C=C/C=C/C=C/C=C/C=C/[C@H](O[C@@H]2O[C@H](C)[C@@H](O)[C@H](N)[C@@H]2O)C[C@@H]2O[C@](O)(C[C@@H](O)C[C@@H](O)[C@H](O)CC[C@@H](O)C[C@@H](O)CC(=O)O[C@H]1C)C[C@H](O)[C@H]2C(=O)O` [AMB, Amphotericin-B, reference compound], for which the “MIC in μg/ml (Amphotericin B)” value was determined as 0.5 µg/mL (≈ 0.541 µM) in the test with C. albicans ATCC 2091 (setting [2]); 0.5 µg/mL (≈ 0.541 µM) in the test on C. albicans ATCC 10231 (setting [2]); 0.5 µg/mL (≈ 0.541 µM) with C. Krusei ATCC 6258 (setting [2]); 0.5 µg/mL (≈ 0.541 µM) in the test on C. albicans ATCC 90028 (setting [2]); 0.5 µg/mL (≈ 0.541 µM) with C. tropicalis ATCC 750 (setting [2]); 0.25 µg/mL (≈ 0.271 µM) in the test with C. glabrata ATCC 90030 (setting [2]). Besides, in test [1] (setting [2]), the “MIC in μg/ml (Amphotericin B)” value came to 0.25 µg/mL (≈ 0.271 µM).

Turning to `OC(Cn1cncn1)(Cn1cncn1)c1ccc(F)cc1F` [FLU, Fluconazole], the MIC50 in the test on C. albicans ATCC 2091 is 0.5 µg/mL (≈ 1.63 µM); with C. albicans ATCC 10231, 1 µg/mL (≈ 3.27 µM); with C. Krusei ATCC 6258, 64 µg/mL (≈ 209 µM); in the test on C. albicans ATCC 90028 it was 0.5 µg/mL (≈ 1.63 µM); in the test on C. tropicalis ATCC 750, 2 µg/mL (≈ 6.53 µM); in the test on C. glabrata ATCC 90030, 4 µg/mL (≈ 13.1 µM). The MIC50 in test [1] amounted to 1 µg/mL (≈ 3.27 µM).

Regarding `CCCCCc1cc2c(=O)n(C[C@@](O)(Cn3cncn3)c3ccc(F)cc3F)cnc2s1` [Formula 1a-02, (R)-3-[2-(2,4-difluorophenyl)-2-hydroxy-3-(1H-1,2,4-triazol-1-yl)propyl]-6-n-pentylthieno[2,3-d]pyrimidin-4(3H)-one], the MIC50 with C. albicans ATCC 2091 is 8 µg/mL; with C. albicans ATCC 10231, 8 µg/mL; in the test with C. Krusei ATCC 6258 it was more than 16 µg/mL; in the test with C. albicans ATCC 90028, 4 µg/mL; in the test on C. tropicalis ATCC 750, 16 µg/mL; with C. glabrata ATCC 90030 it was 4 µg/mL. The MIC50 in test [1] was found to be 4 µg/mL.

In the case of `CCCCCCc1cc2c(=O)n(C[C@](O)(Cn3cncn3)c3ccc(F)cc3F)cnc2s1` [Formula 1b-01, (S)-3-[2-(2,4-Difluorophenyl)-2-hydroxy-3-[1,2,4]triazol-1-yl-propyl]-6-(n-hexyl)-thieno[2,3-d]pyrimidin-4(3H)-one], the MIC50 in the test with C. albicans ATCC 2091 worked out at 0.25 µg/mL; with C. albicans ATCC 10231, 0.12 µg/mL; in the test on C. Krusei ATCC 6258 it was 1 µg/mL; in the test with C. albicans ATCC 90028, 0.12 µg/mL; in the test on C. tropicalis ATCC 750 it was 0.25 µg/mL; with C. glabrata ATCC 90030, 0.12 µg/mL. In addition, the MIC50 in test [1] was determined as 0.06 µg/mL.

On to `CCCCCc1cc2c(=O)n(C[C@](O)(Cn3cncn3)c3ccc(F)cc3F)cnc2s1` [Formula 1b-02, (S)-3-[2-(2,4-difluorophenyl)-2-hydroxy-3-(1H-1,2,4-triazol-1-yl)propyl]-6-n-pentylthieno[2,3-d]pyrimidin-4(3H)-one], for which the MIC50 in the test with C. albicans ATCC 2091 stood at 0.12 µg/mL; in the test with C. albicans ATCC 10231, 0.12 µg/mL; with C. Krusei ATCC 6258 it was 1 µg/mL; in the test on C. albicans ATCC 90028 it was 0.03 µg/mL; with C. tropicalis ATCC 750, 0.06 µg/mL; in the test on C. glabrata ATCC 90030, 0.06 µg/mL. For the same compound, in test [1], the MIC50 came out at 0.03 µg/mL.

Turning to `CCCCCCCc1cc2c(=O)n(C[C@](O)(Cn3cncn3)c3ccc(F)cc3F)cnc2s1` [Formula 1b-03, (S)-3-[2-(2,4-Difluorophenyl)-2-hydroxy-3-[1,2,4]triazol-1-yl-propyl]-6-n-heptyl-thieno[2,3-d]pyrimidin-4(3H)-one], the MIC50 in the test with C. albicans ATCC 2091 came to 0.5 µg/mL; in the test on C. albicans ATCC 10231, 0.5 µg/mL; in the test with C. Krusei ATCC 6258, 1 µg/mL; in the test on C. albicans ATCC 90028, 0.25 µg/mL; with C. tropicalis ATCC 750 it was 1 µg/mL; in the test on C. glabrata ATCC 90030, 0.25 µg/mL. In addition, in test [1], the MIC50 worked out at 0.12 µg/mL.

For the compound `CCCc1cc2c(=O)n(C[C@](O)(Cn3cncn3)c3ccc(F)cc3F)cnc2s1` [Formula 1b-04, (S)-3-[2-(2,4-Difluorophenyl)-2-hydroxy-3-[1,2,4]triazol-1-yl-propyl]-6-(n-propyl)-thieno[2,3-d]pyrimidin-4(3H)-one], the MIC50 in the test on C. albicans ATCC 2091 turned out to be 0.03 µg/mL; in the test on C. albicans ATCC 10231, 0.06 µg/mL; with C. Krusei ATCC 6258 it was 1 µg/mL; with C. albicans ATCC 90028, 0.03 µg/mL; in the test on C. tropicalis ATCC 750 it was 0.06 µg/mL; in the test with C. glabrata ATCC 90030, 0.03 µg/mL. The MIC50 in test [1] was determined as 0.03 µg/mL.
